One experiment deals with C. albicans. Nature of the experiment: Antifungal activity, cascade microdilution. The format is cell-based. The conditions noted are these: Candida albicans, 24 h, read-out: IC50 (μg/mL) C. albicans.
A further experiment concerns CHO-K1 cells. Nature of the experiment: WST1 cytotoxicity test on CHO-K1 cells. In kind it is cell-based, Chinese hamster. The conditions noted are these: Cricetulus griseus. The gist of the method: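 CHO-K1 cells pre-grown 24 h, then exposed to increasing compound concentrations in duplicate for 24 h at 37° C, 5% CO2. Viability read after 20 min with 10% WST-1 in PBS at 450 nm; IC50 from nonlinear regression as concentration cutting viability 50%.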
(Tetrazolium assays rely on reduction of a dye to a coloured formazan, in cell work by metabolically active cells.)

A further experiment relates to E. coli Human ATCC 28922. The experiment can be described thus: MIC determination, E. coli human ATCC 28922. In kind it is cell-based. The note with it: Escherichia coli, ATCC28922; Gram-negative; Mueller-Hinton medium, 24 h at 37° C. The gist of the method: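 Strains, thawed from −80 °C glycerol stocks, are grown in Mueller-Hinton medium and seeded at OD 0.01 per well. Test compounds, prepared at 5 mg/mL in DMSO/methanol 50/50, are serially diluted by half. After 24 h at 37 °C, turbidity at 620 nm gives the MIC.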

[1] abbreviates: CHO-K1, 24 h, read-out: IC50 (μg/mL) CHO.
The mark [2] stands for this setting: CHO-K1, read-out: IC50 (μg/mL) CHO.

Converted amounts (≈) assume the structure as drawn. Read-outs that look alike come from different tables or passages of the source.

A word on the MIC: it is the least concentration at which growth counts as inhibited. A low value points to inhibition by little substance.

For `CC(C)NC(=O)CC[C@@H](C)[C@H]1CCC2C3C(C[C@H](O)[C@@]21C)[C@@]1(C)CC[C@H](NCCCNCCCN)CC1C[C@H]3O` (stereo partly drawn) [(5), 3β-norspermidino-N-isopropylcholamide], the IC50 is 4 µg/mL (≈ 7.11 µM) in the experiment on C. albicans, 70 µg/mL (≈ 124 µM) in the experiment with CHO-K1 cells (setting [1]) and 70 µg/mL (≈ 124 µM) with CHO-K1 cells (setting [2]). Further, the MIC with E. coli Human ATCC 28922 turned out to be 16 µg/mL (≈ 28.4 µM).
On to `CC(C)NC(=O)CC[C@@H](C)[C@H]1CCC2C3C(CC[C@@]21C)[C@@]1(C)CC[C@H](NCCCNCCCNCCCN)CC1C[C@H]3O` (stereo partly drawn) [(7), 3β-norspermino-N-isopropylchenodeoxycholamide], for which the IC50 in the experiment with CHO-K1 cells (setting [1]) is 55 µg/mL (≈ 91.1 µM). Besides, the MIC in the experiment with E. coli Human ATCC 28922 was determined as 15 µg/mL (≈ 24.8 µM).
In the case of `CC(C)NC(=O)CC[C@@H](C)[C@H]1CCC2C3C(CC[C@@]21C)[C@@]1(C)CC[C@H](NCCCNCCCN)CC1C[C@H]3O` (stereo partly drawn) [(8), 3β-norspermidino-N-isopropylchenodeoxycholamide], the figures for the IC50 in the experiment on C. albicans, in the experiment with CHO-K1 cells (setting [1]) and in the experiment on CHO-K1 cells (setting [2]) were 1 µg/mL (≈ 1.83 µM), 50 µg/mL (≈ 91.4 µM) and 50 µg/mL (≈ 91.4 µM), respectively. Further, the MIC against E. coli Human ATCC 28922 is 14 µg/mL (≈ 25.6 µM).
Take `CC(C)NC(=O)CC[C@@H](C)[C@H]1CCC2C3C(CC[C@@]21C)[C@@]1(C)CC[C@H](NCCCNCCCN)CC1C[C@@H]3O` (stereo partly drawn) [(15), 3β-norspermidino-N-isopropylursodeoxycholamide]: the IC50 in the experiment on C. albicans was 14 µg/mL (≈ 25.6 µM); in the experiment on CHO-K1 cells (setting [1]), 140 µg/mL (≈ 256 µM); in the experiment with CHO-K1 cells (setting [2]) it was 85 µg/mL (≈ 155 µM). For the same molecule, in the experiment on E. coli Human ATCC 28922, the MIC was 56 µg/mL (≈ 102 µM).
Regarding `CC(C)NC(=O)CC[C@@H](C)[C@H]1CCC2C3CCC4C[C@@H](NCCCN(C)CCCN)CC[C@]4(C)C3C[C@H](O)[C@@]21C` (some centres unmarked) [(25)], the IC50 in the experiment with CHO-K1 cells (setting [1]) came out at 48 µg/mL (≈ 85.6 µM). Moreover, the MIC against E. coli Human ATCC 28922 was found to be 14 µg/mL (≈ 25 µM).
For `CC(C)NC(=O)CC[C@@H](C)[C@H]1CCC2C3C(CC[C@@]21C)[C@@]1(C)CC[C@H](NCCCN(C)CCCN)CC1C[C@H]3O` (stereo partly drawn) [(27), 3β-(bis(3-aminopropyl)methylamine)-N-isopropylchenodeoxycholamide], the IC50 turned out to be 2 µg/mL (≈ 3.57 µM) with C. albicans, 100 µg/mL (≈ 178 µM) in the experiment with CHO-K1 cells (setting [1]) and 100 µg/mL (≈ 178 µM) in the experiment on CHO-K1 cells (setting [2]). The molecule also returned an MIC in the experiment on E. coli Human ATCC 28922 of 16 µg/mL (≈ 28.5 µM).
Regarding `CC(C)NC(=O)CC[C@@H](C)[C@H]1CCC2C3CCC4C[C@@H](NCCCNCCCN)CC[C@]4(C)C3C[C@H](O)[C@@]21C` (stereo partly drawn) [Compound (2), 3β-norspermidino-N-isopropyldeoxycholamide], the IC50 with CHO-K1 cells (setting [1]) was 35 µg/mL (≈ 64 µM). The MIC with E. coli Human ATCC 28922 is 14 µg/mL (≈ 25.6 µM).
For the molecule `CC(C)NC(=O)CC[C@@H](C)[C@H]1CCC2C3C(CC[C@@]21C)[C@@]1(C)CC[C@H](NCCCNCCCCNCCCN)CC1C[C@@H]3O` (stereo partly drawn) [Compound (35), 3β-spermino-N-isopropylursodeoxycholamide], the IC50 in the experiment on C. albicans was found to be 1 µg/mL (≈ 1.62 µM); in the experiment on CHO-K1 cells (setting [1]), 55 µg/mL (≈ 89 µM); in the experiment with CHO-K1 cells (setting [2]), 55 µg/mL (≈ 89 µM). Further, it took 64 µg/mL (≈ 104 µM) to inhibit growth against E. coli Human ATCC 28922 (MIC).
